Laboratory results published in patent US11124540B2, “Polypeptides for the treatment of diseases” (Neopep Pharma GmbH & Co., KG, priority 2017, dated 2021).

Tested on: Pancreas carcinoma cells
Experiment: Cancer cell invasion assay on humanized rats with implanted pancreas carcinoma cells
Type: in vivo
Settings: for Tumor response, 2 w after end of therapy: 2 weeks after end of therapy; for Tumor response, 1 w of therapy: after 1 week of therapy; for Tumor response, 2 w of therapy: after 2 weeks of therapy
Procedure: The cancer cell invasion assay was performed on humanized rats (Eyol, E. et al., Oncology Reports, 28: 2177-2187, 2012). Pancreas carcinoma cells were implanted. The successful implant was observed by luminescent imaging as well as by an increase in CXCR4 expression.
After a successful implant of carcinoma cells, the rats were treated with a peptide according to Seq ID No. 1 and Seq. ID No. 9 respectively. The results after 1 week of therapy (1 w of therapy), after 2 weeks of therapy (2 w of therapy) and 2 weeks after end of therapy are depicted in the below tables.

Sequence	Tumor response, 2 w after end of therapy (amount of peptide 35 mg)	Tumor response, 2 w after end of therapy (amount of peptide 70 mg)	Tumor response, 1 w of therapy (amount of peptide 70 mg)	Tumor response, 2 w of therapy (amount of peptide 7 mg)	Tumor response, 2 w after end of therapy (amount of peptide 10 mg)	Tumor response, 1 w of therapy (amount of peptide 10 mg)	Tumor response, 2 w of therapy (amount of peptide 10 mg)	Tumor response, 2 w after end of therapy (amount of peptide 20 mg)	Tumor response, 1 w of therapy (amount of peptide 20 mg)	Tumor response, 2 w of therapy (amount of peptide 70 mg)
ILRWSRKMPQFS (human) [Seq ID No. 9, Ile Leu Arg Trp Ser Arg Lys Met Pro Gln Phe Ser]	Tumor growth	Tumor growth	Tumor growth	–	–	–	–	–	–	–
IVRWSKKVPQVS (human) [Seq ID No. 1, Ile Val Arg Trp Ser Lys Lys Val Pro Gln Val Ser]	–	Complete Remission	No tumor growth	No tumor growth	Tumor growth	No tumor growth	Tumor growth	Complete Remission	No tumor growth	Remission
